One assay addresses T1, HOXA1-PBX1/DNA (Mus musculus, UniProt P41778).
T1 construct: the mouse/human 233-319 PBX1 protein
T1 sequence (P41778 233-319): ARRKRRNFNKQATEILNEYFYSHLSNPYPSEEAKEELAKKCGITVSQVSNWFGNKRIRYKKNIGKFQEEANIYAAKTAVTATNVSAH
Put plainly: EMSA, formation of HOXA1-PBX1/DNA ternary complex. In kind it is binding. As to conditions: for Selectivity for HOXA1-PBX1/DNA ternary complex relative to the other complexes tested: versus PBX1/DNA, BRN1/DNA, BRN2/DNA.

The next assay addresses T2, PBX1/DNA (Mus musculus, UniProt P41778).
T2 construct: the mouse/human 233-319 PBX1 protein
T2 sequence (P41778 233-319): T1 sequence (P41778 233-319)
The assay can be described thus: EMSA, formation of PBX1/DNA binary complex (FIG. 1). In kind it is binding. As to conditions: for Inhibition of formation of the PBX1/DNA binary complex: FIG. 1. The source says: Antagonist 31 differs from compound 15 by replacing the small cyclopropyl R1 with the larger 4-hydroxyphenyl group. […] On the other hand, both antagonists can bind in the hydrophobic pocket thereby preventing HOXA1 from binding to the binary complex. Upon closer evaluation of the compound 31 dose-response of the binary PBX/DNA band intensity relative to the ternary HOXA1-PBX/DNA band intensity, it was noted that the binary PBX/DNA band initially “increased” in intensity at low compound 31 concentrations. […] As the concentration of compound 31 is further increased, the binary PBX/DNA complex formation is inhibited enough to overcome the release of this binary complex from the ternary complex and, therefore, the binary band intensity begins to decrease.

Another assay has as its target T3, BRN2/DNA (Mus musculus, UniProt P31360).
T3 construct: using nuclear extracts from RA treated P19 cells; endogenous in cells; host or cells: RA-treated P19 cells, nuclear extract
The assay can be described thus: EMSA, BRN2/DNA complex (nuclear extracts from RA treated P19 cells). As to conditions: EMSA with BRN2 recognition element probe. In kind it is binding. The protocol: (§1) The selectivity of individual members of the library for the HOXA1-PBX1/DNA target, as well as the ability of some analogs to cross over to other transcription factor targets was evaluated by testing them in parallel against the BRN1 & BRN2 transcription factors. BRN1 and BRN2 are members of mammalian class III POU transcription factor family and are expressed in the developing embryonic brain (McEvilly et al., Science 295:1528 (2002), which is hereby incorporated by reference in its entirety). POU domain class transciption factors contain, in addition to the POU domain, a homeodomain helix-turn-helix class DNA binding motif similar to that found in the HOX and PBX class transcription factors (Josephson et al., Development 125:3087 (1998); Hara et al., PNAS 89(8):3280 (1992), which are hereby incorporated by reference in their entirety). EMSAs were performed with BRN1 & BRN2 exactly as was done with HOXA1-PBX1 except that a sequence recognition element known to bind BRN1/BRN2 was used as the probe (Pruitt et al., Gene Expression Patterns 4(6):671 (2004), which is hereby incorporated by reference in its entirety).
(In general: A gel shift assay detects complexes by their altered migration in electrophoresis.)

The next assay addresses T4, BRN1/DNA (Mus musculus, UniProt P31361).
T4 construct: using nuclear extracts from RA treated P19 cells; endogenous in cells; host or cells: RA-treated P19 cells, nuclear extract
T4 sequence (P31361 1-497): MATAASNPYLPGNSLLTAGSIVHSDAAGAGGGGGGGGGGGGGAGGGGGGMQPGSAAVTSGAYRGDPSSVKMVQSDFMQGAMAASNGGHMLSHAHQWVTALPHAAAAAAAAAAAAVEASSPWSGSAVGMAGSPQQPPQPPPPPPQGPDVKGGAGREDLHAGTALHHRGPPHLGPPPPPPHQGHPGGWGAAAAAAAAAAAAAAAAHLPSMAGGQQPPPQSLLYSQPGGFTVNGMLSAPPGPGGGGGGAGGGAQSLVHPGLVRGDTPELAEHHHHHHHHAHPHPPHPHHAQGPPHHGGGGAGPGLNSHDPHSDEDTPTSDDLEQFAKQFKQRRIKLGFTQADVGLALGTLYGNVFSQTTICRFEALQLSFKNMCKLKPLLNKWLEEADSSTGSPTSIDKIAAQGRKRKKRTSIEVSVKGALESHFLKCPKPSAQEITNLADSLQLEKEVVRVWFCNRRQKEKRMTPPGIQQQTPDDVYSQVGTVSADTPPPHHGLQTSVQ
Put plainly: EMSA, BRN1/DNA complex (nuclear extracts from RA treated P19 cells). In kind it is binding. The note with it: EMSA with BRN1 recognition element probe. Here is the method:
as §1

The target in assay [1] is T5, HOX-PBX1 cooperative DNA binding (Homo sapiens, UniProt P40424).
T5 sequence (P40424 1-430): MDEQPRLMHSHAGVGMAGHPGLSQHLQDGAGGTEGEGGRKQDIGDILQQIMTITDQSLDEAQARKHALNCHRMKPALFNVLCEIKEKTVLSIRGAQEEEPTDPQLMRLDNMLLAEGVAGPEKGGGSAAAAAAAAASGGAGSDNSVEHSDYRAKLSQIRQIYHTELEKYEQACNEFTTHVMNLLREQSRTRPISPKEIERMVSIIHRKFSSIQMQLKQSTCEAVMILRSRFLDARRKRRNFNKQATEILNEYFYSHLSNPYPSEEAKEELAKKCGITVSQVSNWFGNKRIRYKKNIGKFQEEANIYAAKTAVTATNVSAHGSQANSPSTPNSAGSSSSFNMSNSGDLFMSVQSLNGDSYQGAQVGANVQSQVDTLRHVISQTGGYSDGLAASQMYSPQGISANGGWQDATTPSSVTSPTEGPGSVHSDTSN
The note with it: literature value (Knoepfler et al. 1995); read-out: IC50 for blocking cooperative HOX-PBX DNA binding; cited from earlier work.

The mark [2] stands for this setting: Table 1, EMSA, averaged densitometric analysis of multiple gels.
[3] abbreviates: Table 2, 5,6,7,8-tetrahydro-naphthalenes.
[4] abbreviates: Table 3, tricyclo[6.2.2.0^2,7]dodeca-2(7),3,5-trienes.

T3 sequence (P31360 whole entry): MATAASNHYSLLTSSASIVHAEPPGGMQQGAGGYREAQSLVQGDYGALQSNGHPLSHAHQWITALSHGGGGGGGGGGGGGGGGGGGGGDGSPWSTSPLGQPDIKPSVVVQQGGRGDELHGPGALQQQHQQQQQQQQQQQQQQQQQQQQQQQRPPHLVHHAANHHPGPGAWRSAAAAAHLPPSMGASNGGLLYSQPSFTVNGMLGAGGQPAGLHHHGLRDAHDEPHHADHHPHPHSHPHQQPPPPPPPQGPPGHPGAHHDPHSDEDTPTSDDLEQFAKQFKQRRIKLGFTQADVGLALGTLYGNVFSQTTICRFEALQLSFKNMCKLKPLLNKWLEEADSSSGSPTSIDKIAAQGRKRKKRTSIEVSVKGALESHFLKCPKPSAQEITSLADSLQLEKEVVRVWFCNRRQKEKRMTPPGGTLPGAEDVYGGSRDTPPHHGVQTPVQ

The IC50 is the concentration needed to halve the response being measured. As to `CCCNC(=O)COc1ccc(C(=O)Nc2cccc(F)c2)c2ccccc12` [Compound 11], on HOXA1-PBX1/DNA (setting [2]), the IC50 turned out to be 278 µM.
As for `O=C(COc1ccc(C(=O)Nc2cccc(F)c2)c2c1CCCC2)NC1CC1` [Compound 48], on HOXA1-PBX1/DNA (setting [3]), the IC50 was determined as 66 µM.
In turn, `O=C(COc1ccc(C(=O)Nc2cccc(F)c2)c2c1C1CCC2CC1)NCC(F)(F)F` [Compound 63, 6-[(2,2,2-Trifluoro-ethylcarbamoyl)-methoxy]-tricyclo[6.2.2.0^2,7]dodeca-2,4,6-triene-3-carboxylic Acid (3-fluoro-phenyl)-amide] registered an IC50 against HOXA1-PBX1/DNA (setting [4]) of 258 µM.
As for `O=C(COc1ccc(C(=O)Nc2cccc(F)c2)c2ccccc12)Nc1ccc(O)cc1` [Compound 31], the values for the IC50 against HOXA1-PBX1/DNA (setting [2]), against BRN2/DNA and on BRN1/DNA were 65 µM, 138 µM and 124 µM, respectively. The “Selectivity for HOXA1-PBX1/DNA ternary complex relative to the other complexes tested” value on HOXA1-PBX1/DNA is “some selectivity”. In addition, the “Inhibition of formation of the PBX1/DNA binary complex” value on PBX1/DNA is listed as “inhibited”. For the same compound, at PBX1/DNA (dose-response, low concentrations), the “Binary PBX/DNA band intensity at low compound concentrations” value was “increased”.
In the case of `O=C(COc1ccc(C(=O)Nc2cccc(F)c2)c2ccccc12)NCC(F)(F)F` [Compound 17], the IC50 against HOXA1-PBX1/DNA (setting [2]) was 111 µM; on BRN2/DNA, 204 µM; against BRN1/DNA, 162 µM.
As to `O=C(COc1ccc(C(=O)Nc2cccc(F)c2)c2c1C1CCC2CC1)NC1CC1` [Compound 61], the IC50 at HOXA1-PBX1/DNA (setting [4]) was 562 µM.
At HOXA1-PBX1/DNA (setting [2]), `CC(C)CNC(=O)COc1ccc(C(=O)Nc2cccc(F)c2)c2ccccc12` [Compound 13] had an IC50 of 298 µM.
Same read-out and setting: with `COc1ccc(NC(=O)COc2ccc(C(=O)Nc3cccc(F)c3)c3ccccc23)cc1` [Compound 29] the figure was 161 µM; with `COc1cccc(NC(=O)COc2ccc(C(=O)Nc3cccc(F)c3)c3ccccc23)c1` [Compound 28], 580 µM.
Still for that read-out and setting: with `C#CCNC(=O)COc1ccc(C(=O)Nc2cccc(F)c2)c2ccccc12` [Compound 16] the figure was 331 µM; with `COc1ccccc1NC(=O)COc1ccc(C(=O)Nc2cccc(F)c2)c2ccccc12` [Compound 27], 718 µM; with `COc1ccc(NC(=O)COc2ccc(C(=O)Nc3cccc(F)c3)c3ccccc23)cc1OC` [Compound 34], 464 µM.
On to `O=C(COc1ccc(C(=O)Nc2cccc(F)c2)c2c1CCCC2)NCC(F)(F)F` [Compound 49], for which, at HOXA1-PBX1/DNA (setting [3]), the IC50 came to 84 µM.
Take `O=C(COc1ccc(C(=O)Nc2cccc(F)c2)c2c1C1CCC2CC1)Nc1ccc(O)cc1` [Compound 62]: at HOXA1-PBX1/DNA (setting [4]), the midpoint of inhibition, the IC50, lay at 196 µM.
With `O=C(COc1ccc(C(=O)Nc2cccc(F)c2)c2ccccc12)Nc1cccc(O)c1` [Compound 30], the figures for the 50% inhibitory concentration (IC50) against HOXA1-PBX1/DNA (setting [2]), at BRN2/DNA and on BRN1/DNA were 86 µM, 148 µM and 142 µM, respectively.
Regarding QPQIYPWMRKLH, the IC50 in assay [1] is 100 µM.
As for `CC(C)NC(=O)COc1ccc(C(=O)Nc2cccc(F)c2)c2ccccc12` [Compound 12], inhibition against HOXA1-PBX1/DNA (setting [2]) was half-maximal at 272 µM (IC50).
Turning to `O=C(COc1ccc(C(=O)Nc2cccc(F)c2)c2ccccc12)NC1CC1` [Compound 15], the IC50 at HOXA1-PBX1/DNA (setting [2]) was 173 µM; against BRN2/DNA it was more than 10000 µM; against BRN1/DNA it was 810 µM. Besides, the “Selectivity for HOXA1-PBX1/DNA ternary complex relative to the other complexes tested” value on HOXA1-PBX1/DNA is on record as “selective”. Besides, at PBX1/DNA, the “Inhibition of formation of the PBX1/DNA binary complex” value is recorded as “ternary complex only”.
In turn, `NC(=O)COc1ccc(C(=O)Nc2cccc(F)c2)c2ccccc12` [Compound 7] returned an IC50 against HOXA1-PBX1/DNA (setting [2]) of 272 µM.
The compound `O=C(COc1ccc(C(=O)Nc2cccc(F)c2)c2c1CCCC2)Nc1ccc(O)cc1` [Compound 50] registered an IC50 at HOXA1-PBX1/DNA (setting [3]) of 96 µM.
In turn, `O=C(COc1ccc(C(=O)Nc2cccc(F)c2)c2ccccc12)Nc1ccccc1` [Compound 23] yielded an IC50 on HOXA1-PBX1/DNA (setting [2]) of 254 µM.
Still for that read-out and setting: the same measure for `O=C(COc1ccc(C(=O)Nc2cccc(F)c2)c2ccccc12)Nc1ccc(F)cc1` [Compound 26]: 293 µM.

The values are drawn from patent US7662750B2, “Protein-protein interaction antagonist screening libraries based upon 1,4-disubstituted naphthalenes and related scaffolds” (The Research Foundation of State University of New York, priority 2003, dated 2010).
